A short description of data set [1]: Transmission electron microscopy (TEM) of self-assembly. In kind it is physicochemical. To be noted: aqueous solution, particle size distribution histogram (Figure 3b, S10). An excerpt: (§1) Next, we examined the factors driving excimer formation. […] […].
The nature of data set [2]: Dynamic light scattering (DLS). To be noted: solution; DLS (Figure S11). In kind it is physicochemical.
From the text: as §1

Data set [3] in a line: Concentration-dependent fluorescence (excimer formation) in furin working buffer. In kind it is physicochemical. The note with it: under UV irradiation (365 nm lamp). On the procedure:
In the next phase, we investigated the optical properties of RF-Cou and its enzymatic product F-Cou. […] In contrast, as the concentration increased, a new emission peak around 550 nm gradually emerged in the fluorescence spectra of F-Cou. […] These observations confirmed the formation of Cou excimers.
Figure 2 The fluorescence emission spectra and images of RF-Cou (a,c) and F-Cou (b,d) at different concentrations in furin working buffer. […] The fluorescence spectra were conducted with the excitation of 430 nm and the slit width of 5 nm. The fluorescence images were taken under the 365 nm UV lamp irradiation.

Test in data set [4]: not given
The source holds these as a separate data set.

Test in data set [5]: not given
The source holds these as a separate data set.

Test in data set [6]: not given
The source holds these as a separate data set.

Data set [7] is described as follows: Critical micelle concentration (CMC) measurement by transmittance. The note with it: furin working buffer.
Description: The transmittance spectra of the solutions were measured using a UV-3600 spectrophotometer (SHIMADZU, Kyoto, Japan).
Test in data set [8]: not given
This is another data set of the same source.

The next data set concerns the target furin (Homo sapiens, UniProt P09958). It counts as biochemical. The note with it: 200 μM with 50 U/mL furin, 37 °C, 12 h. On the procedure:
Based on the above in vitro experiments, we concluded that RF-Cou existed as a blue fluorescent monomer in aqueous solution. […] These findings validated the feasibility of using RF-Cou for subsequent precision live-cell imaging studies of furin activity.
Figure 3 (a) Fluorescence decay profiles of the first emission peak at 475 nm (blue) and the last emission peak at 550 nm (green) of 200 μM F-Cou; λex = 405 nm. (b) TEM image of F-Cou. Inset: the particle size distribution histogram. (c) LC-MS traces of 200 μM RF-Cou incubated with or without 50 U/mL furin at 37 °C for 12 h. The blue line corresponds to the probe RF-Cou, and the green line represents its cleavage product F-Cou. TEXT PRINTED IN THE PICTURE: (a) no label printed: First peak at 475 nm <τ> = 4.26 ns; Last peak at 550 nm <τ> = 10.73 ns | (b) no label printed: d = 51.1 ± 9.8 nm

Data set [9] relates to normal mouse fibroblast L929 cells. It counts as cell-based. To be noted: 200 µM. On the procedure:
4T1 mouse breast cancer cells or L929 mouse fibroblast cells were cultured in RPMI-1640 medium or Dulbecco’s Modified Eagle’s medium (DMEM) supplemented with 10% v/v FBS, 100 U/mL penicillin, 100 μg/mL streptomycin, and 0.25 μg/mL amphotericin B, respectively. These cells were incubated at 37 °C in a humidified atmosphere of 5% CO2. First, the cells (4T1, L929 cell lines) were seeded in 96-well plates (3 × 10^3 cells in each well) and incubated in a 37 °C cell incubator for 24 h. The RPMI-1640 medium or DMEM was replaced with different concentrations of RF-Cou (0, 1.5, 3.1, 6.2, 12.5, 25.0, 50.0, 100, and 200 μM) in the medium and incubated for 24 h or 48 h, respectively. MTT (5 mg/mL, 10 μL) was then added to each well, and the cells were incubated for another 4 h. The formed formazan crystals were dissolved by DMSO (100 μL per well), and the absorbance at 570 nm was measured using a microplate reader (BioTek, Winooski, VT, USA).

Data set [10] has as its system furin-overexpressing 4T1 tumor cells. The data set is described as follows: Confocal live-cell fluorescence imaging of furin activity, 4T1 cells. To be noted: 200 μM. In kind it is cell-based, mouse. The procedure:
(§2) 4T1 cells or L929 cells were seeded on confocal dishes (1 × 10^5 cells/dish) and incubated at 37 °C in a humidified atmosphere of 5% CO2 for 24 h. Following the removal of the conditioned medium, 4T1 cells or L929 cells were treated with RF-Cou (200 μM) at various times (0, 0.5, 1, 2, 4, 6, and 8 h). After the incubation was completed, the medium was discarded, PBS was added to clean the cells three times, and laser confocal scanning microscopy was used for cell imaging. To investigate the role of furin in activating excimer fluorescence, 4T1 cells were pre-incubated with 1 mM of furin inhibitor II (Inh) for 30 min and then treated with RF-Cou (200 μM) for 0.5 h or 6 h before imaging.
(§3) Figure 5 (a) Confocal fluorescence images of furin-overexpressing 4T1 cells or normal L929 cells incubated with 200 μM RF-Cou at varying time points; λex = 405 nm, monomer channel (blue) λem = 415–485 nm; excimer channel (green) λem = 520–600 nm; Scale bar: 50 μm. Time-dependent relative fluorescence intensity in monomer and excimer channels of 4T1 (b) or L929 (c) cells, respectively (n = 3, mean ± SD).
Figure 6 (a) Confocal fluorescence images of 4T1 or L929 cells incubated with 200 μM RF-Cou for 0.5 h or 6 h after being treated with or without furin inhibitor (Inh); λex = 405 nm, monomer channel (blue) λem = 415–485 nm; excimer channel (green) λem = 520–600 nm; Scale bar: 50 μm. Fluorescence intensity in monomer and excimer channels of 4T1 (b) or L929 (c) cells, respectively (n = 3, mean ± SD). Flow cytometry results of the excimer channel fluorescence in 4T1 (d) or L929 (e) incubated with 200 μM RF-Cou for 6 h after being treated with or without Inh.

A further data set has as its system L929 normal cells. The data set is described as follows: Confocal live-cell fluorescence imaging, L929 cells. In kind it is cell-based, mouse. To be noted: 200 μM. The procedure:
as §2, §3
Figure 6 (a) Confocal fluorescence images of 4T1 or L929 cells incubated with 200 μM RF-Cou for 0.5 h or 6 h after being treated with or without furin inhibitor (Inh); λex = 405 nm, monomer channel (blue) λem = 415–485 nm; excimer channel (green) λem = 520–600 nm; Scale bar: 50 μm. […]

Peptide text beside a SMILES is read from it. * marks the point of attachment. DEAC = CCN(CC)c1ccc2cc(C(=O)*)c(=O)oc2c1

Chain of furin (P09958 108-794, species assumed): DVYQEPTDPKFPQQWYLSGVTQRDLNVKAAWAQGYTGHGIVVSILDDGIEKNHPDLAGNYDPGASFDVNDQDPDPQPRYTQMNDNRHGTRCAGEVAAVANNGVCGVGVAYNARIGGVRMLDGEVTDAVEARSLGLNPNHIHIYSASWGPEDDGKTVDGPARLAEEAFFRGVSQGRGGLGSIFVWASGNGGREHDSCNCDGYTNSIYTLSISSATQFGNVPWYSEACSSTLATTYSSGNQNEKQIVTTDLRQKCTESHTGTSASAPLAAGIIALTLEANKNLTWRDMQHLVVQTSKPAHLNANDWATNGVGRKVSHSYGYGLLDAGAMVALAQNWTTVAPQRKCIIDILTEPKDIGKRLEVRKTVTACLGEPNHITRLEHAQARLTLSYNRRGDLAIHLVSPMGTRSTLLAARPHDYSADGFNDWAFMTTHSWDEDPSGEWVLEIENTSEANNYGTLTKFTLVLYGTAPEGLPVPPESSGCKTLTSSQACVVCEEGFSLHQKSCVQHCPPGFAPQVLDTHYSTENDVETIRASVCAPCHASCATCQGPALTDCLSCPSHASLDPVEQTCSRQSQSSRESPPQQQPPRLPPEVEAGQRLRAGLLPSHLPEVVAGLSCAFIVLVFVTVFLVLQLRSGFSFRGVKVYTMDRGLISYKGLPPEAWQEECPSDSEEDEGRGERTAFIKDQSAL

`CCN(CC)c1ccc2cc(C(=O)NCCCC[C@H](N)C(=O)N[C@@H](Cc3ccccc3)C(=O)N[C@@H](Cc3ccccc3)C(=O)O)c(=O)oc2c1` [F-Cou, Lys(Cou)-Phe-Phe-OH] displayed a maximum absorption peak of 430 nm. For the same compound, the “Nanoparticle diameter by TEM” value in [1] turned out to be 51.1 ± 9.8 nm. For the same compound, in data set [2], the “Hydrodynamic diameter by DLS” value is 69.2 ± 18.4 nm. In addition, in [3], the “Concentration above which the solution changes from blue to green (excimer formation)” value is “exceeded 31.25 μM”. In the data set “physchem”, this compound came in with a logP of 1.15. Moreover, the fluorescence lifetime <τ>, 475 nm emission peak in data set [4] came out at 4.26 ns. This compound also came in with a fluorescence lifetime <τ>, 550 nm emission peak in [5] of 10.7 ns. In addition, the fold enhancement of fluorescence lifetime, 550 nm vs 475 nm band in [6] stood at 2.5 fold. Further, the “Critical micelle concentration (CMC)” value in data set [7] (transmittance-concentration curve at 600 nm (Figure S9)) is 45.1 µM.
On to `CCN(CC)c1ccc2cc(C(=O)NCCCC[C@H](NC(=O)[C@H](CCCNC(=N)N)NC(=O)[C@H](CCCNC(=N)N)NC(=O)[C@@H](NC(=O)[C@H](CCCNC(=N)N)NC(C)=O)C(C)C)C(=O)N[C@@H](Cc3ccccc3)C(=O)N[C@@H](Cc3ccccc3)C(=O)O)c(=O)oc2c1` [RF-Cou, Ac-Arg-Val-Arg-Arg-Lys(Cou)-Phe-Phe-OH] (Ac-RVRRK(DEAC)FF-OH), for which the maximum absorption peak was found to be 430 nm. For the same compound, in data set [8], the maximum emission peak worked out at 475 nm. The “Nanoparticle diameter by TEM” value in data set [1] is reported as “no nanoparticle distribution was observed”. Besides, the “Hydrodynamic diameter by DLS” value in data set [2] is “no detectable signal corresponding to nanoparticles”. Further, at furin, the “Cleavage by furin, LC-MS” value is given as “could be enzymatically processed by furin to generate F-Cou”. Besides, the Cell viability result in [9] is listed as “over 80%”. Also, the “Excimer fluorescence after furin inhibitor pretreatment” value in data set [10] (4T1 cells pretreated with 1 mM furin inhibitor II (Inh) for 30 min, 6 h) is listed as “significantly weaker than that in cells without Inh pretreatment”. The Cellular uptake result in [10] (4T1 cells with or without Inh pretreatment, 0.5 h, confocal fluorescence) is reported as “successful cellular uptake”. In data set [10] (4T1 cells, peak at 6 h, λex 405 nm, excimer 520–600 nm, monomer 415–485 nm, n = 3), the “Excimer channel fluorescence intensity vs monomer channel” value was 3.2 fold. For the same compound, the Cellular uptake result in the data set on L929 normal cells (0.5 h, confocal fluorescence) is “successful cellular uptake”. For the same compound, the “Monomer channel fluorescence intensity vs excimer channel” value with L929 normal cells (6 h, λex 405 nm, excimer 520–600 nm, monomer 415–485 nm, n = 3) is on record as “approximately 5.1 fold”. In “physchem”, this compound came in with a logP of -1.46. In addition, in data set [7] (concentrations up to 800 μM, transmittance at 600 nm, UV-3600 spectrophotometer), the “Transmittance (self-assembly performance)” value is above 95%.

The logP is the decadic logarithm of the partition coefficient of the neutral form, usually between octanol and water. A higher logP goes with a more lipophilic compound.

The record behind these values is article PMC12156344, “Furin-Triggered Peptide Self-Assembly Activates Coumarin Excimer Fluorescence for Precision Live-Cell Imaging” (Molecules, 2025).
